Assay results from US20130071328A1, “Propynoic Acid Carbamoyl Methyl-Amides and Pharmaceutical Compositions and Methods Based Thereon” (UNIVERSITY OF SOUTHERN CALIFORNIA, priority 2011, published 2013).

Tests used:
[1] = system: HCT116 p53^−/− colon cancer cell line; experiment: MTT cytotoxicity assay, HCT116 p53-/-; format: cell-based; conditions: Homo sapiens, HCT-116, 72 h exposure
From the text: (§1) The human breast cancer cell line MDA-MB-435 and the colon cancer cell line HT29 were purchased from the American Type Cell Culture (Manassas, Va.). Colon cancer cell lines HCT116 p53^+/+ and HCT116 p53^−/− were kindly provided by Dr. Bert Vogelstein (Johns Hopkins Medical Institutions, Baltimore, Md.). The human ovarian carcinoma cell line (HEY), naturally resistant to cisplatin (CDDP), was kindly provided by Dr. Louis Dubeau (USC Norris Cancer Center). The bladder cancer cell lines were kindly provided by Dr. Richard Cote (USC Keck School of Medicine). Cells were maintained as monolayer cultures in the appropriate media: RPMI-1640 (HT29, HCT116 p53^+/+, HCT116 p53^−/−, and HEY cell lines) or DMEM (MDA-MB-435 and UMUC3 cell lines) supplemented with 10% fetal bovine serum (FBS) (HyClone, Road Logan, Utah) at 37° C. in a humidified atmosphere of 5% CO2. To remove the adherent cells from the flask for subculture and counting, cells were washed with PBS without calcium or magnesium, incubated with a small volume of 1×trypsin-EDTA solution (Sigma-Aldrich, St. Louis, Mo.) for 5 min, resuspended with fresh culture medium, and centrifuged at 1200 rpm for 5 min. All experiments were performed using cells in exponential growth phase. Cells were routinely checked for Mycoplasma contamination using PlasmaTest kit (InvivoGen, San Diego, Calif.).
(§2) Cytotoxicity was assessed by MTT assay as described previously. 43 In brief, cells were seeded in 96-well microtiter plates and allowed to attach overnight. Cells were subsequently treated with continuous exposure to corresponding drugs for 72 h. At the end of treatments, an MTT solution (at a final concentration of 0.5 mg/mL) was added to each well, and cells were incubated for 4 h at 37° C. After removal of the supernatant, DMSO was added, and the absorbance was read at 570 nm. All assays were done in triplicate. The IC50 was then determined for each drug from a plot of log(drug concentration) versus percentage of cells killed.

[2] = system: HT29 colon cancer cell line; experiment: MTT cytotoxicity assay, HT29; format: cell-based; conditions: Homo sapiens, HT-29, 72 h exposure
From the text: as §1, §2

[3] = system: HCT116 p53^+/+ colon cancer cell line; experiment: MTT cytotoxicity assay, HCT116 p53+/+; format: cell-based; conditions: Homo sapiens, HCT-116, 72 h exposure
From the text: as §1, §2

[4] = system: HEY ovarian cancer cell line; experiment: Cytotoxicity assay, HEY; format: cell-based; conditions: Homo sapiens; MTT, 72 h exposure (Table 2)
From the text: as §1, §2

[5] = system: doxorubicin-resistant NCI/ADR-RES ovarian cancer cell line; experiment: Cytotoxicity assay, NCI/ADR-RES; format: cell-based; conditions: Homo sapiens
Procedure: as §2

[6] = system: MDA-MB-435 breast cancer cell line; experiment: MTT cytotoxicity assay, MDA-MB-435; format: cell-based, human; conditions: Homo sapiens, MDA-MB-435, 72 h, 72 h exposure
From the text: as §1, §2

[7] = system: 5637 bladder cancer cell line; experiment: MTT cytotoxicity assay, 5637; format: cell-based, human; conditions: Homo sapiens, 72 h exposure
From the text: as §1, §2

[8] = system: UMUC3 bladder cancer cell line; experiment: MTT cytotoxicity assay, UMUC3; format: cell-based; conditions: Homo sapiens, 72 h exposure
From the text: as §1, §2

[9] = system: OVCAR8 ovarian cancer cell line; experiment: In vitro cytotoxicity, OVCAR8; format: cell-based; conditions: Homo sapiens, OVCAR-8; Table 4, ovarian cancer panel
Procedure: as §2

[10] = system: OVCAR3 ovarian cancer cell line; experiment: In vitro cytotoxicity, OVCAR3; format: cell-based; conditions: Homo sapiens, OVCAR-3; Table 4, ovarian cancer panel
Procedure: as §2

| Structure (SMILES) | IC50 [1] [µM] | IC50 [2] [µM] | IC50 [3] [µM] | IC50 [4] [µM] | IC50 ([5]; MTT, 72 h exposure (Table 2)) [µM] | IC50 [6] [µM] | IC50 [7] [µM] | IC50 [8] [µM] | IC50 [9] [µM] | IC50 ([5]; Table 4, ovarian cancer panel) [µM] | IC50 [10] [µM] |
| --- | --- | --- | --- | --- | --- | --- | --- | --- | --- | --- | --- |
| C#CC(=O)N(c1cc(OC)cc(OC)c1)C(C(=O)NC1CCCC1)c1ccc(OC)cc1 (stereo not shown) [Compound 11, N-[2-(Cyclopentylamino)-1-(4-methoxyphenyl)-2-oxoethyl]-N-(3,5-dimethoxyphenyl)Propynamide] | > 20 | 2.1 ± 0.4 | 15 | 2.3 ± 0.4 | 0.3 | 2.4 ± 0.1 | 1.9 ± 0.6 | > 20 | – | – | – |
| C#CC(=O)N(c1ccccc1F)C(C(=O)NC1CCCCC1)c1ccccc1F (stereo not shown) [Compound 19, N-[2-(Cyclohexylamino)-1-(2-fluorophenyl)-2-oxoethyl]-N-(2-fluorophenyl)Propynamide] | 10.1 ± 2.9 | 7.7 ± 0.5 | 11.9 ± 0.1 | 5.6 ± 2.1 | 0.4 ± 0.1 | 6.5 ± 2.1 | 2.1 | > 20 | – | – | – |
| C#CC(=O)N(c1cccc(C(F)(F)F)c1)C(C(=O)NC1CCCC1)c1ccc(F)cc1 (stereo not shown) [Compound 12, N-[2-(Cyclopentylamino)-1-(4-fluorophenyl)-2-oxoethyl]-N-[3-(trifluoromethyl)phenyl]Propynamide] | 6.9 ± 0.6 | 4.8 ± 3.2 | 7.5 ± 0.7 | 2.4 ± 0.2 | 0.4 | 5.2 ± 1.2 | 0.5 ± 0.3 | 8 ± 1.4 | – | – | – |
| C#CC(=O)N(CC(N)=O)c1ccc(OC)cc1OC [Compound 29] | – | – | – | – | – | – | – | – | 0.5 ± 0.3 | – | – |
| C#CC(=O)N(c1ccc(OC)cc1OC)C(C(=O)NCC(=O)OCC)c1cccs1 (stereo not shown) [Compound 38] | – | – | – | – | – | – | – | – | 2.8 ± 0.7 | 2.6 ± 1.5 | 0.32 |
| C#CC(=O)N(c1ccc2ccccc2c1)C(C(=O)NC1CCCC1)c1ccccc1 (stereo not shown) [Compound 14, N-[2-(Cyclopentylamino)-2-oxo-1-phenylethyl]-N-(2-naphthyl)Propynamide] | 7.4 ± 0.8 | 4.9 ± 3.4 | 6.8 ± 1.8 | 1.7 ± 1.1 | 0.3 | 7.3 | 0.5 ± 0.3 | > 20 | – | – | – |
| C#CC(=O)N(Cc1ccc2c(c1)OCO2)C(C(=O)NCc1ccccc1)c1ccccc1F (stereo not shown) [Compound 15, N-(1,3-Benzodioxol-5-ylmethyl)-N-[2-(benzylamino)-1-(2-fluorophenyl)-2-oxoethyl]Propynamide] | > 20 | > 10 | > 10 | > 10 | 1.3 ± 1 | > 10 | 2.8 ± 1.1 | > 20 | – | – | – |
| C#CC(=O)N(c1ccc2c(c1)OCCO2)C(C(=O)NC1CCCC1)c1ccccc1 (stereo not shown) [Compound 8, N-[2-(Cyclopentylamino)-2-oxo-1-phenylethyl]-N-(2,3-dihydro-1,4-benzodioxin-6-yl)Propynamide] | > 20 | 3.2 ± 1.2 | 17.3 ± 1.1 | 4.1 ± 3.4 | 0.3 | 1.8 ± 0.6 | 1.9 ± 0.6 | > 20 | – | – | – |
| C#CC(=O)N(CC(=O)NC1CCCC1)c1ccc(OC)cc1OC [Compound 28] | – | – | – | – | – | – | – | – | 0.52 | 0.02 | 0.23 |
| C#CC(=O)N(c1ccc(C(N)=O)cc1)C(C(=O)NC1CCCC1)c1ccccc1 (stereo not shown) [Compound 34] | – | – | – | – | – | – | – | – | 1.2 | 2.5 | 2.5 |
| C#CC(=O)N(c1ccc(OC)c(OC)c1)C(C(=O)NC1CCCC1)c1cccs1 (stereo not shown) [Compound 3, N-[2-(Cyclopentylamino)-2-oxo-1-thien-2-ylethyl]-N-(3,4-dimethoxyphenyl)Propynamide] | 9.6 ± 4.9 | 5.5 ± 4.2 | 7.7 ± 1.9 | 3.4 ± 1.5 | 0.9 ± 0.8 | 2 ± 0.1 | 2 ± 0.7 | > 20 | – | – | – |
| C#CC(=O)N(c1cccc(OC)c1)C(C(=O)NC1CCCC1)c1cccs1 (stereo not shown) [Compound 6, N-[2-(Cyclopentylamino)-2-oxo-1-thien-2-ylethyl]-N-(3-methoxyphenyl)Propynamide] | 5.6 ± 0.8 | 2.3 ± 0.3 | 7.2 ± 0.2 | 1.9 ± 0.7 | 0.3 | – | 0.3 | 6.9 ± 1.2 | – | – | – |
| C#CC(=O)N(c1ccc(-n2cnnn2)c(C)c1)C(C(=O)NC1CCCC1)c1cccnc1 (stereo not shown) [Compound 31] | – | – | – | – | – | – | – | – | 1.5 | 2.5 | 2.5 |
